Reference: US7172875B2, “Identifying inhibitors of intracellular protein fibrillization” (The Ohio State University Research Foundation, priority 2003, dated 2007)
One block for each compound: values may come before it.

What was measured:
α-synuclein [1] = target: T1, α-synuclein (Homo sapiens, UniProt P37840); assay: α-synuclein polymerization, electron microscopy; assay type: biochemical; conditions: 37° C.; standard polymerization conditions
T1 construct: His-tag; made in house
Experimental: (§1) α-synuclein Polymerization Assays. Under standard conditions, α-synuclein (4–70 μM) was incubated with AA or other polymerization inducers (25–3000 μM) in Assembly Buffer (10 mM HEPES, pH 7.4, 100 mM NaCl, 5 mM DTT) at 37° C. for 3–26 h, without agitation. Various inducer concentrations were prepared by serial dilution of stock solutions. Control reactions were normalized for 1:1 H2O isopropanol vehicle, which was limited to 5% in all reactions. Samples were processed for electron microscopy and fluorescence spectroscopy as described below.
Electron Microscopy. Aliquots of polymerization reactions were taken, treated with 2% glutaraldehyde (final concentration), mounted on formvar/carbon coated 300 mesh grids, and negatively stained with 2% uranyl acetate as described previously (King et al., 1999). Images were viewed in a Phillips CM 12 transmission electron microscope operated at 65 kV. Random images were captured on film at 8,000–22,000X magnification, digitized at 600 dots-per-inch resolution, and imported into Optimas 6.5.1 for quantification of filament lengths and numbers. Individual filaments were defined as any object greater than 50 nm in its long axis and were counted manually.

[2] = CMC measurements for SDS (Corrin-Harkins analysis of CMC depression); assay type: physicochemical; conditions: literature values
Experimental: CMC values for SDS were estimated at 37° C. using N-phenyl-1-naphthylamine as described previously, except that various concentrations of protamine, histone, α-synuclein, or htau40 were included with the samples. Detergent stock solutions were prepared in 1:1 water isopropanol.
Analytical Methods. Dependence of detergent CMC on protein concentration was fit to the empirical Corrin-Harkins equation: log CMC=−kCH(log n)+bCH (1) where n is the molar concentration of protein or salt and kCH and bCH are constants. The slope of these curves, kCH, approximates the proportion of detergent micelles that are ionized.

htau40 [3] = target: T2, htau40 (Homo sapiens, UniProt P10636); assay: Disaggregation of preaggregated tau followed by ThS fluorescence; assay type: biochemical
T2 construct: His-tag; made in house

htau40 [4] = target: T2, htau40; conditions: synthetic filaments aggregated 3 h with AA; Ref. 12; cited from earlier work
α-synuclein [5] = target: T1, α-synuclein; assay: α-synuclein polymerization, Thioflavin T assay; assay type: biochemical
Experimental: as §1
Thioflavin T assay. α-synuclein (4–70 μM) was incubated in Assembly Buffer in the presence of 20 μM thioflavin T, with or without assembly inducers, in 96-well plates. Aggregation was monitored by following thioflavin T fluorescence (λex=[…]; in a Flex Station plate reader (Molecular Devices, Sunnyvale, Calif.).

htau40 [6] = target: T2, htau40; assay: tau aggregation assay, electron microscopy quantification of filament lengths; assay type: biochemical; conditions: 10 μM concentration; data not shown
Experimental: Aggregation assays. Under standard conditions, htau40 (4 μM) was incubated without agitation in Assembly Buffer (10 mM HEPES, pH 7.4, 100 mM NaCl, 5 mM dithiothreitol) at 37° C. for up to 168 h in the presence or absence of fibrillization inducer (AA, alkyl sulfate detergents, or carboxylate modified polystyrene beads). All samples incubated for more than 24 h were kept under argon in parafilm-sealed tubes. Samples were processed for assay by electron microscopy as described below.
Electron Microscopy Assays. […] Random images were viewed in a Phillips CM 12 transmission electron microscope operated at 65 kV, captured on film at 8,000–100,000-fold magnification, digitized at 600 dots-per-inch resolution, and imported into Optimas 6.5.1 for quantification of filament lengths and numbers. Individual filaments (defined as any object greater than 50 nm in its long axis with both ends visible in the field of view) were counted manually. […]
[formula] where y is total filament length (50 nm cutoff) measured at time t, yo is total filament length at time zero, t50 is time to 50% maximum fibrillization, A is the maximum total filament length at equilibrium, and kapp is the apparent first order rate constant for fibril growth in units of time^−1. […]

T2 sequence (P10636 1-441 isoform P10636-8): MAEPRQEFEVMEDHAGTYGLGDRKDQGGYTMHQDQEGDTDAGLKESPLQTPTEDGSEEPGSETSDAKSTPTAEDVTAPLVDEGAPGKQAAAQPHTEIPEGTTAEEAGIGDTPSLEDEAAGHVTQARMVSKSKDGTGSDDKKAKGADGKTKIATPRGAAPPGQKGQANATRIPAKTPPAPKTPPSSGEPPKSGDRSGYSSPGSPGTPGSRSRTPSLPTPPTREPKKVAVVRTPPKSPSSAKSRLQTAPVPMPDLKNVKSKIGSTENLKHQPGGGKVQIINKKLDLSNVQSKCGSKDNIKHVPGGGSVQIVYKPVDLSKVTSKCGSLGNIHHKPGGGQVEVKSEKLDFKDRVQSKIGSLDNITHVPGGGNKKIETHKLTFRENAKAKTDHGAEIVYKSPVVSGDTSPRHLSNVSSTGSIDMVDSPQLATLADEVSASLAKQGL

Compound: Phosphatidylserine
induction of α-synuclein polymerization seen by electron microscopy (α-synuclein [1]): Abundant filaments and/or filamentous conglomerates

Compound: uteroglobulin^4-14: hydrophobic undecapeptide of neutral net charge with two positive charges; literature values (PSFQRVIETLL; UniProt P11684 25-35, looked up, fragment)
potency of CMC depression relative to NaCl on a molar basis [2]: 1000 fold

Compound: CCCCC/C=C\C/C=C\C/C=C\C/C=C\CCCC(=O)O [AA, Arachidonic acid]
decay slower than dilution in buffer alone (htau40 [3]; 50 μM arachidonic acid): 50 fold | first order decay rate of ThS fluorescence after 20-fold dilution (htau40 [3]; additive in Assembly Buffer: 50 μM arachidonic acid or 2 μM htau40): 0.5 h⁻¹ | induction of α-synuclein polymerization seen by electron microscopy (α-synuclein [1]): induced | slope constant b of exponential filament length distribution (htau40 [4]): −5.4±0.2 μm^−1

Compound: Heparin
Thioflavin T signal (α-synuclein [5]; heparin 25–3000 μM saccharide monomer, both forms of heparin): < 600 counts | induction of α-synuclein fibrillization (Thioflavin T fluorescence) (α-synuclein [5]; α-synuclein 30 μM, 16 h at 37° C.): only weakly | induction of α-synuclein polymerization seen by electron microscopy (α-synuclein [1]): little measurable polymerization

Compound: CCCCCCCCCCCCOS(=O)(=O)[O-].[Na+] [C12H25SO4Na]
threshold inducer concentration for induction of α-synuclein fibrillization (α-synuclein [5]; 16 h at 37° C., α-synuclein 5-30 μM): approximately 100 μM

Compound: phosphatidylcholine
induction of α-synuclein polymerization seen by electron microscopy (α-synuclein [1]): least efficient inducer

Results, then the compound that gave them:

induction of α-synuclein polymerization seen by electron microscopy (α-synuclein [1]): second in potency
Compound: phosphatidic acid

inhibition of tau fibrillization (htau40 [6]): not inhibitory
Compound: thioflavin S [ThS]
